# Key:
# [1] = system: Methicillin-resistant Staphylococcus aureus (MRSA) CCARM 3095; format: cell-based; conditions: broth microdilution, 37 °C, 18–22 h
# Experimental: The bacterial strains employed in the experiment were Escherichia coli (KCTC 1682), Pseudomonas aeruginosa (KCTC 1637), Bacillus subtilis (KCTC 3068), Staphylococcus aureus (KCTC 1621), three methicillin-resistant Staphylococcus aureus (CCARM 3089, 3090 and 3095), two multidrug-resistant Pseudomonas aeruginosa (CCARM 2095 and 2109) and vancomycin-resistant Enterococcus faecium (ATCC 51559). The antimicrobial activities of polymers were determined by the broth microdilution method, and the procedures were used as previously reported. Briefly, bacteria grown to mid-logarithmic phase in LB broth were diluted to 2 × 10^6 CFU/mL in 1% peptone and added to serial two-fold dilutions of different polymers ranging from 1 to 64 μg/mL. The plates were incubated in a shaking incubator at 37 °C for 18–22 h. The minimum inhibitory concentration (MIC) was determined by confirming the absence of bacterial growth both visually and spectrophotometrically by OD600 readings taken by a microplate ELISA reader (Molecular Devices, Sunnyvale, CA, USA). All measurements were performed three times.
# trypsin = assay: Protease stability, radial diffusion assay after tryptic digestion; format: in vitro ADME; conditions: trypsin 0.2 μg/mL in PBS, 37 °C (24 h, 4 h elsewhere in the source), clearance zones against E.coli and S.aureus
# Experimental: The protease stability of triazine based polymers (TZP3 and TZP5) was performed by the radial diffusion assay as described previously. Briefly, a bacteria suspension (2×10^6 CFU/mL in LB) was mixed with 0.7% agarose. This mixture was poured into a 10-cm petri dish, and it dispersed rapidly. […] The reaction was stopped by freezing with liquid nitrogen, after which 10 μL aliquots were placed in each circle paper, put on the agarose plates, and then incubated at 37 °C overnight. The diameters of the bacterial clearance zones surrounding the circle paper were measured for the quantitation of inhibitory activities.
# TNF-α in RBL-2H3 cells = assay: Production of TNF-α induced by A23187 and PMA; format: cell-based, rat; conditions: 1 μM A23187 and 80 nM PMA, 4 h
# Experimental: The inhibition of TNF-α release induced by A23187 and PMA from the RBL-2H3 cells was assessed by using a previously reported method. The RBL-2H3 cells (2 × 10^5 cells/well) were cultured with 1 μM A23187 and 80 nM PMA for 4 h at 37 °C, after exposure to 0, 15.625, 31.25, 62.5, or 125 μg/mL 30 min of the TZP3 and TZP5. Next, the cells were used for RT-PCR.
# (§1) Effect of TZP3 and TZP5 on TNF-α suppression
# (§2) Therefore, the dimer TZP3 and trimer TZP5 were probed for their potential for inhibiting the TNF-α induced from RBL-2H3 cells in in vitro method.
# (§3) Calcium ionophore A23187 and PMA induced the TNF-α secretion in RBL-2H3 cells, on the contrary, treatment of which with TZP3 and TZP5
# Figure S1. Inhibitory effects of the TZP3 and TZP5 on A23187 and PMA-induced TNF-α induced from RBL-2H3 cells. […]
# [2] = system: β-hexosaminidase release from RBL-2H3 cells; assay: β-hexosaminidase release assay; format: cell-based, rat; conditions: 500 μg/mL, 12 h treatment, A23187 1 μM 30 min, dose-dependent
# Experimental: The β-hexosaminidase assay was performed as described previously with some modifications. Cells were treated with different concentrations of samples for 12 h. The treated cells were washed two times with PBS and stimulated with calcium ionophore A23187 (1 μM, final concentration) at 37 °C for 30 min. Aliquots (50 μL) of the supernatants were incubated with 50 μL of 1 mM 4-nitrophenyl-N-acetyl-β-D-glucosaminide in 0.1 M sodium citrate (pH 4.5) at 37 °C for 1 h. At the end of incubation, 250 μL of carbonate buffer containing 0.1 M Na2CO3 and 0.1 M NaHCO3 (pH 10) was added, and then the absorbance due to the formation of p-nitrophenol was measured at 410 nm. The supernatant from the non-stimulated cells was used as a blank while the supernatant from the stimulated cells with calcium ionophore A23187 alone was used as a control. The β-hexosaminidase release levels were calculated as a percentage compared to that of control: β-hexosaminidase release (%) = (absorbance of tested sample− absorbance of blank)/(absorbance of control-absorbance of blank) × 100.
# as §1, §2, §3
# Figure S1. […]
# [3] = system: dorsal skin of AD-induced BALB/c mice; assay: DNCB-induced AD model, histological observations (H&E, toluidine blue); format: in vivo; conditions: versus AD mice; for decrease in both epidermal and dermal thickness: 200 μg/mL topical daily for 18 days, H&E staining; for infiltration of mast cells in the skin lesions: topical application, toluidine blue staining
# Experimental: (§4) As described in our previous article, the 7-week-old female BALB/c mice were divided into seven groups (n = 8 per group): Control (Con) group, TZP3 200 μg/mL (TZP3) group, and TZP5 200 μg/mL (TZP5) group, DNCB-sensitized only (AD) group, DNCB-sensitized + TZP3 200 μg/mL (AD + TZP3) group, DNCB-sensitized + TZP5 200 μg/mL (AD + TZP5) group, DNCB-sensitized + Dermatop (Sanofi, Korea) 0.25% (AD + Dermatop) group. Dermatop was used as a positive control treatment. For the first induction of AD in the BALB/c mice, the backs of the mice were shaved and challenged with 200 μL of 1% 2,4-dinitrochlorobenzene(DNCB) in acetone/olive oil (3:1) one time (day−4). After 4 days from the induction, 0.5% DNCB was painted onto the backs of the mice every two days (day 2, 4, 6, 8, 10, 12, 14, 16 and 18). Concentrations of 200 μg/mL TZP3 or TZP5 in 20 μL of PBS were applied to the dorsal skin once daily for 18 days.
# As described in our previous article, the skin tissues of the mice were […] in 10% neutral buffered formalin (NBF) for 24 h and embedded in white paraffin. Serial paraffin‐sections with 5 µm thickness, were prepared and stained with hematoxylin-eosin (H&E) or toluidine blue. The thickness of the epidermis and dermis was measured under a microscope. The number of mast cells stained by toluidine blue in the upper dermis in a field of 0.25 mm × 0.25 mm (0.0625 mm^2) was counted under the microscope. The cells in five fields (0.3125 mm^2 in total) of the upper dermis were counted, and an estimate of the number of cells per 1 mm^2 was made for each mouse specimen.
# [4] = system: lymph node and spleen of AD-induced mice; assay: DNCB-induced AD model, lymph node and spleen weight and size; format: in vivo, BALB/c mice; conditions: for weight and size of spleen: compared to AD-induced mice, p < 0.05 for weight; for decrease in both weight and size of lymph node: compared to untreated AD-mice
# Experimental: as §4
SMILES,MIC MRSA CCARM 3095 [1],antibacterial activity after incubation with trypsin (trypsin),TNF-α suppression (TNF-α in RBL-2H3 cells; 15.6 μg/mL),TNF-α suppression (TNF-α in RBL-2H3 cells; 31.2 μg/mL),TNF-α suppression (TNF-α in RBL-2H3 cells; 62.5 μg/mL),TNF-α suppression (TNF-α in RBL-2H3 cells; 125 μg/mL),inhibition of β-hexosaminidase release [2],decrease in both epidermal and dermal thickness [3],infiltration of mast cells in the skin lesions [3],weight and size of spleen [4],decrease in both weight and size of lymph node [4]
NCCCN(CCCN)c1nc(Cl)nc(NCCNc2nc(NCCNc3nc(N)nc(NCCC(c4ccccc4)c4ccccc4)n3)nc(N(CCCN)CCCN)n2)n1 [TZP5],4 [3] µg/mL,did not lose any of their antibacterial effects,didn’t show appreciable TNF-α suppressions,didn’t show appreciable TNF-α suppressions,dose-dependent manner,dose-dependent manner,maximum inhibitory effects,more than 50%,significantly suppressed,significant decrease,more than 35%
NCCCN(CCCN)c1nc(N)nc(NCCNc2nc(Cl)nc(N(Cc3ccccc3)Cc3ccccc3)n2)n1 [TZP3],8 [13.5] µg/mL,did not lose any of their antibacterial effects,~10%,~10%,approximately 70%,~90%,maximum inhibitory effects,more than 50%,significantly suppressed,significant decrease,more than 35%

# Reference: paper PMC6805867, “Amphiphilic Triazine Polymer Derivatives as Antibacterial And Anti-atopic Agents in Mice Model” (Scientific Reports, 2019)
